Patent US8686113B2 (priority 2009, dated 2014)
Converted amounts (≈) assume the structure as drawn. Where two headings read alike, the source gives them in different places. Non-standard residues stand in square brackets, D forms with d. Residues, ends and D or L forms follow the SMILES beside them. Hyp = O=C(O)[C@@H]1C[C@@H](O)CN1; Tle = CC(C)(C)[C@H](N)C(=O)O; Orn = NCCC[C@H](N)C(=O)O

What was measured:
[1] = test system: bacterial proteases (E. coli BL21 A1 lysate); assay: Stability against bacterial proteases in E. coli lysate; format: in vitro ADME; conditions: E. coli lysate with 0.5 mg/mL protein concentration, 37° C.
Method: (§1) For the bacterial lysate, 500 mL of nutrient broth (Carl Roth GmbH+Co. KG, Karlsruhe) was inoculated with E. coli BL21 A1 and incubated overnight at 37° C. 2×250 mL bacterial suspension were centrifuged for 25 min at 5000 rpm and 4° C. in a Beckman Avanti™ J-20-XP centrifuge with JLA-10.500 rotor (Beckman Coulter, Fullerton, U.S.A.). The pellets were each suspended in 30 mL PBS (pH 7.4) and centrifuged again in a Beckman Allegra™ 2IR centrifuge (Beckman Coulter, Fullerton, U.S.A.). The pellets were each suspended in 10 mL PBS and were disrupted with ultrasound (Vibra-cell™ microtip, Fisher Bioblock Scientific, Illkirch, France) 2×5 min (750 W; amplitude 40%; 2 s on/3 s off) on ice. The bacterial lysates were combined and 1 mL aliquots were centrifuged at 15400 rpm for 20 min at 4° C. (Beckman Allegra™). The supernatants were removed and stored at −20° C. The protein content of the bacterial lysate was determined by protein determination according to Bradford.
(§2) A solution of 0.15 μg/mL peptide in bacterial lysate with protein content of 1.5 mg/mL or 0.5 mg/mL was incubated at 37° C. After 0, 30, 60, 120, 240 or 360 min, 200 μL was taken from each and the proteins were precipitated with 50 μL of 15% trichloroacetic acid. Then it was incubated for 10 min at 4° C. and then centrifuged for 5 min at 13000 rpm in a Minispin desktop centrifuge. 210 μL was taken from the supernatant and neutralized with 1 mol/L sodium hydroxide solution. The intact peptide and the degradation products were analyzed by HPLC. 60 μL of 3% aqueous acetonitrile with 0.1% trifluoroacetic acid (TFA) was added to the solution and 250 μL of the mixture was injected. After chromatographic separation, the constituents were identified by MALDI-TOF-MS,
(§3) In order to investigate the stability against bacterial proteases, a lysate was prepared from an overnight culture of E. coli BL21 A1 and the peptides were incubated in it. Using Bradford protein determination, the protein concentration was adjusted to 0.5 or 1.5 mg/mL.

[2] = test system: Escherichia coli DSM 10233
Method: (§4) The minimum inhibitory concentrations (MIC) of the antimicrobial peptides and peptide derivatives were determined in microdilution assays. These used a continuous peptide dilution in sterile flat-bottomed 96-well microtiter plates (polystyrene, Greiner Bio-One GmbH, Frickenhausen, Germany) and a total volume of 100 μL per well. The aqueous peptide or peptidomimetic solutions were diluted with 1% TSB water, to obtain a final concentration of 256 μg/mL. 50 μL of the peptide or peptidomimetic solution was pipetted into the first well of each series and stirred. From this solution, 50 μL was transferred to the second well, stirred and again 50 μL was transferred to the next well, and so on. A double dilution series is obtained, beginning at 256 μg/mL in the first well to 125 ng/mL in the twelfth well. The bacteria, e.g. E. coli BL21 A1, were cultured overnight at 37° C. in nutrient broth (NB, Carl Roth GmbH+Co. KG, Karlsruhe, Germany). 50 μL of a 5×10^6 bacteria/mL suspension in 1% TSB was added to each well of the microtiter plate and thus a final concentration of the peptides or peptidomimetics from 128 μg/mL (well 1) to 62.5 ng/mL (well 12) was established in each series. The plates were incubated at 37° C. for 20 h and then the absorption was measured at 595 nm with a TECAN microtiter plate spectrophotometer (Tecan Trading AG, Mannedorf, Switzerland). The MIC values of all peptides and peptidomimetics were determined in triplicate. Sterile water was used as negative control.
(§5) The peptides shown in Table 8 were investigated for their MIC against pathogenic bacteria such as E. coli DSM 10233, K. pneumoniae DSM 681 and P. aeruginosa DSM 3227.

[3] = test system: Klebsiella pneumoniae DSM 681
Method: as §4, §5

[4] = test system: Pseudomonas aeruginosa DSM 3227
Method: as §4, §5

[5] = mouse, serum
Method: (§7) For this, the peptides and peptidomimetics were dissolved in water, mouse serum was added and the peptide concentration was adjusted to 75 μg/mL. While shaking continuously, the mixture was incubated at 37° C. After 0, 30, 60, 120, 240 and 360 minutes, in each case an aliquot was taken and mixed with 15% aqueous trichloroacetic acid (Carl Roth GmbH & Co. KG; Karlsruhe, Germany). After incubation on ice for a further 10 minutes, the precipitated serum proteins were centrifuged off (5 min, 13400 rpm, MiniSpin, Eppendorf AG, Hamburg, Germany). The supernatant was removed, neutralized with 1 mol/L aqueous sodium hydroxide solution (Fluke Chemie GmbH, Buchs, Switzerland) and stored at −20° C. until analysis.
(§8) The supernatants were analyzed by RP-HPLC with a linear acetonitrile gradient (Biosolve BV, Valkenswaard, The Netherlands) in the presence of 0.1% trifluoroacetic acid (TFA, UV-grade, Fluka Chemie GmbH, Buchs, Switzerland) as ion-pairing reagent. The fractions were co-crystallized with α-cyanohydroxycinnamic acid (Bruker Daltonik GmbH; Bremen, Germany) as matrix (5.3 mg/mL in 50% acetonitrile in 0.1% aqueous TFA) and were analyzed with a tandem mass spectrometer (MALDI-TOF/TOF-MS, 4700 Proteomics Analyzer; Applied Biosystems GmbH, Weiterstadt, Germany) in the positive-ion reflector mode. The proportion of intact peptides and their degradation products or metabolites could thus be identified and quantified at the individual time points. The control used was 25% aqueous mouse serum, which was analyzed in parallel for the same time intervals.

[6] = 25% aqueous mouse serum, 37° C., 75 μg/mL peptide
Method: as §7, §8

E. coli BL21 A1 = format: cell-based, Escherichia coli; conditions: BL21, 20 h
How it was run: (§6)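 Broth microdilution in 1% TSB with twofold peptide series, final 128 μg/mL to 62.5 ng/mL, against 5×10^6 bacteria/mL stock suspension added 1:1. Incubated 20 h at 37 °C, growth read by absorbance at 595 nm; MIC is the lowest concentration with no growth, determined in triplicate.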

M. luteus 10240 = assay: Growth inhibition assay (microdilution MIC); format: cell-based, Micrococcus luteus; conditions: 10240, 20 h
How it was run: as §6

[7] = Stability against bacterial proteases in E. coli lysate; format: in vitro ADME; conditions: E. coli lysate with 0.5 mg/mL protein concentration; for remaining at 4 h, 0.15 μg/mL: E. coli BL21 A1 lysate (bacterial proteases), pH 7.4, read-out: percentage printed under half-life >240 min (peptide remaining)
Method: as §1, §2, §3
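Wherever Half-life in 25% mouse serum is given: intact peptide left at successive time points measured by reversed-phase HPLC with an acetonitrile gradient in the supernatant after precipitation of serum proteins.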

CC[C@H](C)[C@H](NC(=O)[C@H](CCCN)NC(=O)[C@H](CCCNC(=N)N)NC(=O)[C@@H]1CCCN1C(=O)[C@@H]1CCCN1C(=O)[C@H](CCCNC(=N)N)NC(=O)[C@@H]1CCCN1C(=O)[C@H](CCCNC(=N)N)NC(=O)[C@@H]1CCCN1C(=O)[C@H](CC(C)C)NC(=O)[C@H](Cc1ccc(O)cc1)NC(=O)[C@@H]1CCCN1C(=O)[C@@H]1CCCN1C(=O)[C@H](CCCCN)NC(=O)[C@H](CC(=O)O)NC(=O)[C@@H](N)C(C)C)C(=O)N[C@@H](Cc1ccc(O)cc1)C(=O)N[C@@H](CC(N)=O)C(=O)N[C@@H](CCCN)C(N)=O [compound 72] (H-VDKPPYLPRPRPPR[Orn]IYN[Orn]-NH2)
Half-life in E. coli lysate [1]: 2.08 h
MIC E. coli DSM 10233 [2]: 32 µg/mL (≈ 13.9 µM)
MIC K. pneumoniae DSM 681 [3]: 4 µg/mL (≈ 1.73 µM)
MIC P. aeruginosa DSM 3227 [4]: >32 µg/mL
half-life [5]: 2.92 h
Half-life in 25% mouse serum [6]: >6 h

CC[C@H](C)[C@H](NC(=O)[C@H](CCCN)NC(=O)[C@H](CCCNC(=N)N)NC(=O)[C@@H]1C[C@@H](O)CN1C(=O)[C@@H]1CCCN1C(=O)[C@H](CCCNC(=N)N)NC(=O)[C@@H]1CCCN1C(=O)[C@H](CCCNC(=N)N)NC(=O)[C@@H]1CCCN1C(=O)[C@H](CC(C)C)NC(=O)[C@H](Cc1ccc(O)cc1)NC(=O)[C@@H]1CCCN1C(=O)[C@@H]1CCCN1C(=O)[C@H](CCCCN)NC(=O)[C@H](CC(=O)O)NC(=O)[C@@H](N)C(C)C)C(=O)N[C@@H](Cc1ccc(O)cc1)C(=O)N[C@@H](CC(N)=O)C(=O)N[C@@H](CCCN)C(N)=O [compound 107] (H-VDKPPYLPRPRP[Hyp]R[Orn]IYN[Orn]-NH2)
MIC E. coli BL21 A1 (E. coli BL21 A1): 4 µg/mL (≈ 1.72 µM)
MIC M. luteus 10240 (M. luteus 10240): 4 µg/mL (≈ 1.72 µM)
MIC E. coli DSM 10233 [2]: 16 µg/mL (≈ 6.89 µM)
MIC K. pneumoniae DSM 681 [3]: 4 µg/mL (≈ 1.72 µM)
MIC P. aeruginosa DSM 3227 [4]: >32 µg/mL

CC[C@H](C)[C@H](NC(=O)[C@@H]1C[C@@H](O)CN1C(=O)[C@H](CCCNC(=N)N)NC(=O)[C@@H]1C[C@@H](O)CN1C(=O)[C@@H]1CCCN1C(=O)[C@H](CCCNC(=N)N)NC(=O)[C@@H]1CCCN1C(=O)[C@H](CCCNC(=N)N)NC(=O)[C@@H]1CCCN1C(=O)[C@H](CC(C)C)NC(=O)[C@H](Cc1ccc(O)cc1)NC(=O)[C@@H]1CCCN1C(=O)[C@@H]1CCCN1C(=O)[C@H](CCCCN)NC(=O)[C@H](CC(=O)O)NC(=O)[C@@H](N)C(C)C)C(=O)N[C@@H](Cc1ccc(O)cc1)C(=O)N[C@@H](CC(N)=O)C(=O)N[C@@H](CCCN)C(N)=O [compound 108] (H-VDKPPYLPRPRP[Hyp]R[Hyp]IYN[Orn]-NH2)
MIC E. coli BL21 A1 (E. coli BL21 A1): 2 µg/mL (≈ 0.862 µM)
MIC M. luteus 10240 (M. luteus 10240): 32 µg/mL (≈ 13.8 µM)
remaining at 4 h, 0.15 μg/mL [7]: 60%
half-life ([7]; 37° C.): > 4 h
MIC E. coli DSM 10233 [2]: 1 µg/mL (≈ 0.431 µM)
MIC K. pneumoniae DSM 681 [3]: 2 µg/mL (≈ 0.862 µM)
MIC P. aeruginosa DSM 3227 [4]: 16 to 32 µg/mL
half-life [5]: 2.5 h

CC(C)C[C@H](NC(=O)[C@H](Cc1ccc(O)cc1)NC(=O)[C@@H]1CCCN1C(=O)[C@@H]1CCCN1C(=O)[C@H](CCCCN)NC(=O)[C@H](CC(=O)O)NC(=O)[C@@H](N)C(C)C)C(=O)N1CCC[C@H]1C(=O)N[C@@H](CCCNC(=N)N)C(=O)N1CCC[C@H]1C(=O)N[C@@H](CCCNC(=N)N)C(=O)N1CCC[C@H]1C(=O)N1CCC[C@H]1C(=O)N[C@@H](CCCNC(=N)N)C(=O)N[C@@H](CCCN)C(=O)N[C@H](C(=O)N[C@@H](Cc1ccc(O)cc1)C(=O)N[C@@H](CC(N)=O)C(=O)N[C@@H](CCCN)C(N)=O)C(C)(C)C [compound 109] (H-VDKPPYLPRPRPPR[Orn][Tle]YN[Orn]-NH2)
MIC E. coli BL21 A1 (E. coli BL21 A1): 4 µg/mL (≈ 1.73 µM)
MIC M. luteus 10240 (M. luteus 10240): 4 µg/mL (≈ 1.73 µM)
remaining at 4 h, 0.15 μg/mL [7]: 90%
Half-life in E. coli lysate [1]: >4 h
half-life [5]: 2.17 h
